The numbers were not newly measured in patent US9884121B2, “Biomaterials and a method for making and using same” (Alumend, LLC, priority 2007, dated 2018), which cites them from elsewhere.

The data set deals with Skin-to-skin. The conditions noted are these: U.S. Pat. No. 5,817,303.

As to `C=C(C#N)C(=O)OCC` [Ethyl cyanoacrylate], the “Shear Strength” value was 385 ± 119 g-f/cm^2.
